Reference: ChEMBL document CHEMBL3871307, “Discovery of Chromane Propionic Acid Analogues as Selective Agonists of GPR120 with in Vivo Activity in Rodents” (ACS Med Chem Lett, 2017)
pEC50: −log10 of the molar value. The source made the active and inactive calls. The calls are words filed in the database; no cut-off is given here.

Tests used:
[1] = target: T1, Free fatty acid receptor 4 (Homo sapiens, UniProt Q5NUL3); test: Agonist activity at human GPR120 short isoform expressed in CHOK1 cells assessed as beta-arrestin recruitment after 90 mins by luminescence assay; type: cell-based, CHO-K1
T1 sequence (Q5NUL3 whole entry): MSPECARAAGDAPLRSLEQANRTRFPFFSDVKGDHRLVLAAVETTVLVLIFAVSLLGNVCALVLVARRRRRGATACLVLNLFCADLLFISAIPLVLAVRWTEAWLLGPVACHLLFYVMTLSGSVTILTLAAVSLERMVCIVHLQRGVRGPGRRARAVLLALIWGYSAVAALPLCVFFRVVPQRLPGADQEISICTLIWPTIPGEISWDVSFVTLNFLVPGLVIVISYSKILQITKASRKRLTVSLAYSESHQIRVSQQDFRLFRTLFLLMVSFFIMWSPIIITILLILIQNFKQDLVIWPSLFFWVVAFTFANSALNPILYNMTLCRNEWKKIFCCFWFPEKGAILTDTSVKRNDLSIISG

[2] = target: Free fatty acid receptor 1 (Homo sapiens, UniProt O14842); test: Agonist activity at human GPR40 expressed in HEK293 cells assessed as increase in IP1 accumulation after 60 mins by HTRF assay; type: functional, cell-based
[3] = target: T1, Free fatty acid receptor 4; test: Agonist activity at human GPR120 short isoform expressed in CHOK1 cells assessed as increase in IP1 accumulation after 60 mins by HTRF assay; type: functional, cell-based, CHO-K1
[4] = target: T2, Free fatty acid receptor 4 (Homo sapiens) (UniProt Q5NUL3); test: Agonist activity at human GPR120 short isoform expressed in CHOK1 cells assessed as increase in IP1 accumulation at 10 uM after 60 mins by HTRF assay; type: functional, cell-based; conditions: CHO-K1
T2 sequence (whole entry): T1 sequence (Q5NUL3 whole entry)

[5] = target: T3, Free fatty acid receptor 4 (Mus musculus) (UniProt Q7TMA4); test: Agonist activity at mouse GPR120 expressed in CHOK1 cells assessed as increase in IP1 accumulation after 60 mins by HTRF assay; type: functional, cell-based; conditions: CHO-K1
T3 sequence (whole entry): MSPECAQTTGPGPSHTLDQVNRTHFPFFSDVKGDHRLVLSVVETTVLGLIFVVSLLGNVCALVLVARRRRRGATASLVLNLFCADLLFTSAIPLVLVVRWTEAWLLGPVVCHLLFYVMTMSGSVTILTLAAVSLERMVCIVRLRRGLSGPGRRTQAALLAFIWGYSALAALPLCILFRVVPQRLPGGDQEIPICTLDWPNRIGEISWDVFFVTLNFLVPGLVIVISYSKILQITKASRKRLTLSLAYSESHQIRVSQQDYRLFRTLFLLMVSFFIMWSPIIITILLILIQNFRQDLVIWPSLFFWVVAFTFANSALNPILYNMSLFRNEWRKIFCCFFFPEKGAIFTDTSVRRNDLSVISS

[6] = Plasma concentration in C57BL/6 transverse aortic constriction mouse at 100 mg/kg, po via gavage measured at 3 hrs; type: ADME, organism-based; conditions: C57BL/6, mouse
[7] = system: Mus musculus; test: Glucose lowering effect in C57BL/6 transverse aortic constriction mouse assessed as reduction in blood glucose at 100 mg/kg, po pretreated for 60 mins as single dose via gavage followed by dextrose challenge measured up to 120 mins post glucose challenge by OGTT; type: functional, organism-based

Sequence of Free fatty acid receptor 1 (O14842 whole entry, canonical isoform): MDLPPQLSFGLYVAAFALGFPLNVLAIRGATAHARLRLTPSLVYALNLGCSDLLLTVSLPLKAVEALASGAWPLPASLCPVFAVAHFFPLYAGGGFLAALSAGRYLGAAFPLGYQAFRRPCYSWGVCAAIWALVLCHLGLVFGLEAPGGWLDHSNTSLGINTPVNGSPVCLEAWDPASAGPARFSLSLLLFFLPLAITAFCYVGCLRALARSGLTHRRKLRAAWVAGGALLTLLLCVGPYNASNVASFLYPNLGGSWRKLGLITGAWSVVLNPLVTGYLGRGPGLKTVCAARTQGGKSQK

Row | SMILES | pEC50 [1] | pEC50 [2] | pEC50 [3] | Activity [4] [%] | Activity [5] | concentration at 3 h [6] [µM] | Activity [7]
1 | COc1cc(O[C@H]2C[C@H](OC)C2)cc(-c2ccc3c(c2)CC[C@H]([C@@H]2C[C@H]2C(=O)O)O3)c1F | 7.11 | < 5.00 | 7.26 | > 50 | – | – | –
2 | Fc1ccc(OC2CCC2)cc1-c1ccc2c(c1)CC[C@H](CCc1nnn[nH]1)O2 | 7.08 | < 5.00 | 6.66 | 44 | Active | 40.6 | Active
3 | O=C(O)CC[C@H]1CCc2cc(-c3cc(OC4CCC4)ccc3F)ccc2O1 | 8.00 | 5.44 | 7.55 | > 50 | – | – | –
4 | O=C(O)CC[C@H]1CCc2cc(-c3cc(OC4CCC4)cnc3F)ccc2O1 | 6.85 | < 5.00 | 7.10 | > 50 | – | – | –
5 | O=C(O)CC[C@@H]1CCc2cc(-c3cc(OC(F)(F)F)ccc3F)ccc2O1 | 7.38 | < 5.00 | 6.74 | > 50 | – | – | –
6 | O=C(O)[C@@H]1C[C@H]1[C@H]1CCc2cc(-c3cc(OC(F)(F)F)ccc3F)ccc2O1 | 7.48 | < 5.00 | 7.16 | > 50 | – | – | –
7 | O=C(O)CC[C@H]1CCc2cc(-c3cc(OC4CCC4)cc(Cl)c3F)ccc2O1 | 8.08 | < 5.00 | 7.40 | > 50 | – | – | –
8 | COc1cc(O[C@H]2C[C@H](OC)C2)cc(-c2ccc3c(c2)CC[C@H](CCc2nnn[nH]2)O3)c1F | 7.37 | < 5.00 | 7.28 | > 50 | – | – | –
9 | O=C(O)CC[C@H]1CCc2cc(-c3cc(OC(F)(F)F)cc(Cl)c3F)ccc2O1 | 7.77 | 5.66 | 7.14 | > 50 | – | – | –
10 | CO[C@H]1C[C@H](Oc2cc(F)c(F)c(-c3ccc4c(c3)CC[C@H](CCc3nnn[nH]3)O4)c2)C1 | 6.77 | < 5.00 | 6.62 | 24 | – | – | –
11 | COc1cc(OC(F)(F)F)cc(-c2ccc3c(c2)CC[C@H](CCC(=O)O)O3)c1F | 7.96 | 5.36 | 7.60 | > 50 | – | – | –
12 | COc1cc(OC2CCC2)cc(-c2ccc3c(c2)CC[C@H]([C@@H]2C[C@H]2C(=O)O)O3)c1F | 8.10 | < 5.00 | 7.60 | > 50 | – | – | –
13 | COc1cc(OC2CC2)cc(-c2ccc3c(c2)CC[C@H](CCc2nnn[nH]2)O3)c1F | 7.49 | < 5.00 | 7.29 | > 50 | – | – | –
